Source: publication PMC9148287, “Cytotoxic and Radiosensitising Effects of a Novel Thioredoxin Reductase Inhibitor in Brain Cancers” (Molecular Neurobiology, 2022)

Assays:
DAOY cells [1] = experiment: Intracellular ROS levels (H2DCF-DA flow cytometry); format: cell-based, human; details: 1 mM H2O2 1 h
Description: (§1) Intracellular ROS levels were measured as described previously. Briefly, cells were treated with various concentrations of IQ10 for 4 h either alone or with subsequent exposure to 1 mM H2O2 (ROS positive control) for 1 h. Cells treated with DMSO, at the same dilution ratio as IQ10, were set as negative controls. Cells were then incubated with the cell-permeable dye 2′,7 ′-dichlorodihydrofluorescein diacetate (H2DCF-DA, Sigma) in fresh medium at a final concentration of 1 μM at 37 °C for 30 min. Cells were harvested and intracellular ROS levels assessed by measurement of fluorescence using a MACSquant flow cytometer (Miltenyi Biotec). A gate was set to include only healthy living cells in the analysis. Data were analysed using FlowJo 7.6.1 software (Tree Star) to obtain the median fluorescence intensity (MFI) of each group representing the amount of intracellular ROS generation.

UW228-3 cells [2] = experiment: Intracellular ROS levels (H2DCF-DA flow cytometry); format: cell-based, human; details: UW228-3, 1 mM H2O2 1 h
Description: as §1

KNS42 cells [3] = experiment: Growth assay (cell counts); format: cell-based; details: Homo sapiens, KNS-42, 2D normoxia
Description: (§2) Cells (2 × 10^5) were seeded in six-well plates, allowed to adhere overnight and then treated, in triplicate, with different concentrations of TMZ (0–1000 μM) or IQ10 (0–1 µM) for up to 72 h under normoxic or hypoxic conditions. DMSO was added to the negative control groups at the same volume equivalent to that in the treatment groups. For hypoxic experiments, cells were pre-incubated at 1% O2 for 24 h prior to drug treatment. Cells were then treated with different concentrations of IQ10 for up to an additional 72 h under hypoxia. Normoxic controls were always assessed in parallel to hypoxic-treated groups. Every 24 h after initiating drug treatment, cells were trypsinised and counted using a Countess system. Cell counts were recorded, analysed and plotted over the 72 h period.

SNB19 cells [4] = experiment: Growth assay (cell counts); format: cell-based; details: Homo sapiens, SNB-19, 2D normoxia
Description: as §2

UW228-3 cells [5] = experiment: Growth assay (cell counts); format: cell-based; details: Homo sapiens, 2D normoxia
Description: as §2

DAOY cells [6] = experiment: Growth assay (cell counts); format: cell-based; details: Homo sapiens, 2D normoxia
Description: as §2
(§3) Cells were seeded, in triplicate, in 24-well plates, incubated overnight and transfected with either a pre-designed siRNA directed against human TrxR-1 (SI00050876, target sequence, 5′-[…]-3′, Qiagen) or mock-transfected with a scrambled siRNA (Allstars Negative Control siRNA, Qiagen). Briefly, 2.5 μL of 2 μM siRNA and 4.5 μL HiPerFect transfection reagent (Qiagen) were combined in 100 μL medium (serum and antibiotic free) and incubated at room temperature for 10 min to allow complex formation. Reaction mixtures were then added to 400 μL of fresh medium. Medium was aspirated from wells and replaced with the appropriate 500 μL of transfection solution. After 48 h of incubation, the cells were re-plated, allowed to adhere overnight and treated with various concentrations of IQ10 for an additional 48 h. Growth curve and/or clonogenic survival assays were used as the endpoint to assess the drug effects. Western blotting analysis of TrxR and β-actin (as a loading control) were used to confirm that TrxR expression was suppressed for the duration of the experiment.

SF188 cells [7] = experiment: Growth assay (cell counts); format: cell-based; details: Homo sapiens, SF-188, 2D normoxia
Description: as §2, §3

KNS42 cells [8] = experiment: Clonogenic survival assay; format: cell-based; details: Homo sapiens, KNS-42; KNS42, 48 h post-treatment
Description: (§4) Cells collected from the growth assay (48 h time point) were counted and plated at low-density, in triplicate, and incubated at 37 °C, 5% CO2, undisturbed, for colony formation. After 12 days (21 days for KNS42), colonies were fixed (50% methanol in PBS), stained (0.5% crystal violet solution) and counted manually. Any cluster of cells greater than 50 in number was counted as a surviving colony. The plating efficiency (PE) was calculated as number of control colonies formed/number of control cells seeded. For single-agent treatment, drug or radiation, the surviving fraction (SF) was calculated as follows: number of colonies formed after treatment / (number of cells seeded × PE). For drug radiation combination experiments, cytotoxicity of drug treatment was accounted for by calculating SF as follows: number of colonies formed from each radiation dose / (number of cells seeded × PE × SF of drug-treated cell at 0 Gy).

SNB19 cells [9] = experiment: Clonogenic survival assay; format: cell-based; details: Homo sapiens, SNB-19; SNB19, 48 h post-treatment
Description: as §4

DAOY cells [10] = experiment: Clonogenic survival assay; format: cell-based; details: Homo sapiens, 48 h post-treatment
Description: as §4, with “For drug radiation combination experiments, cytotoxicity of drug treatment was accounted for by calculating SF as follows: number of colonies formed from each radiation dose / (number of cells seeded × PE × SF of drug-treated cell at 0 Gy).” left out
(§5) Cells were seeded in ultra-low attachment round-bottom 96-well plates (Corning), aggregated by centrifugation (2000 rpm/10 min), and allowed to grow for 4 days under standard culture conditions to form mature spheroids. […] Viability was assessed using the resazurin reduction assay (CellTiter-Blue, Promega) following the manufacturer’s protocol. […] Fluorescence was measured with an excitation wavelength of 560 nm and emission 590 nm on a plate reader. […] Six spheroids per condition were assessed in each experiment. The clonogenicity of cells cultured in spheroids was assessed using conventional 2D clonogenic survival assay as described above. […]

UW228-3 cells [11] = experiment: Clonogenic survival assay; format: cell-based; details: Homo sapiens; UW228-3, 48 h post-treatment
Description: as §4, with “For drug radiation combination experiments, cytotoxicity of drug treatment was accounted for by calculating SF as follows: number of colonies formed from each radiation dose / (number of cells seeded × PE × SF of drug-treated cell at 0 Gy).” left out
as §5

SF188 cells [12] = experiment: Clonogenic survival assay; format: cell-based; details: Homo sapiens, SF-188; SF188, 48 h post-treatment
Description: as §4
Cells were seeded, in triplicate, in 24-well plates, incubated overnight and transfected with either a pre-designed siRNA directed against human TrxR-1 (SI00050876, target sequence, 5′-[…]-3′, Qiagen) or mock-transfected with a scrambled siRNA (Allstars Negative Control siRNA, Qiagen). […]

TrxR [13] = molecular target: T1, TrxR (Homo sapiens, UniProt Q16881); experiment: TrxR activity assay (endpoint insulin reduction) on lysates of drug-treated cells; format: cell-based; details: 1 μM, 4 h; SF188, DAOY and UW228-3 cells
T1 construct: cells were trypsinised, counted and lysed in M-PER protein extraction reagent; endogenous in cells; host or cells: SF188, DAOY, UW228-3
T1 sequence (Q16881 151-649 limits assumed): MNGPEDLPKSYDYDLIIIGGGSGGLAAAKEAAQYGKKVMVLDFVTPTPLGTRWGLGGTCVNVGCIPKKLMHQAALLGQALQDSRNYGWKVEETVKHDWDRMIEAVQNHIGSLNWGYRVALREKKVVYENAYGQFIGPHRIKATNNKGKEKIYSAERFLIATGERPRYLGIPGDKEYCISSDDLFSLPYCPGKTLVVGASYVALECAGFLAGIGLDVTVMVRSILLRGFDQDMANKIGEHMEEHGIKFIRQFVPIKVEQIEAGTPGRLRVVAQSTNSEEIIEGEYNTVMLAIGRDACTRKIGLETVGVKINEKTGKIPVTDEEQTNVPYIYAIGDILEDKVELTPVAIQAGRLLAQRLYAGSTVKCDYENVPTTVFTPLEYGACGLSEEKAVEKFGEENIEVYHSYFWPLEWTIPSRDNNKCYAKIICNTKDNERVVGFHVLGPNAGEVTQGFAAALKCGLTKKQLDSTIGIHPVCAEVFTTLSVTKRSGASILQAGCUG
Description: Following incubation, with various concentrations of IQ10 or with 1 μM of auranofin, for 4/48 h, cells were trypsinised, counted and lysed in M-PER protein extraction reagent (Thermo Fisher) for 20 min. Lysates were analysed immediately or stored for future use at − 80 °C. The Bio-Rad protein assay kit (Bio-Rad Laboratories) was used to measure the protein concentration of each sample. TrxR activity was measured in 96-well plates using the endpoint insulin reduction assay as described previously with appropriate modifications. Briefly, the assay mixture contained the following in a final volume of 100 μL HE buffer (100 mM HEPES, pH 7.2; 5 mM EDTA): 80 µg of protein, 2 µM Escherichia coli Trx, 1 mg/ml bovine insulin and 1 mM NADPH. Duplicate samples were used, either with or without exogenous Trx enzyme. […] Absorbance was measured at 405 nm using a microplate reader (FLUOstar OPTIMA, BMG LABTECH). The absorbance of the sample lacking exogenous Trx was subtracted from that of the corresponding sample containing exogenous Trx. The difference in absorbance indicates TrxR function. The amount of functional TrxR was calculated from the standard curve, generated simultaneously, with pure enzymes. The TrxR activity was expressed as the percentage of DMSO-treated control.

TrxR [14] = system: TrxR; set-up: method as in PMID 17320769; details: ovarian cancer cells; cited from earlier work

OO [H2O2]
intracellular ROS levels compared to control (DAOY cells [1]): 1.4 fold | intracellular ROS levels compared to control (UW228-3 cells [2]): 1.5 fold

Cn1nnc2c(C(N)=O)ncn2c1=O [TMZ, temozolomide]
IC50 (KNS42 cells [3]; KNS42, 24 h): > 1000 µM | IC50 (KNS42 cells [3]; KNS42, 48 h): > 1000 µM | IC50 (KNS42 cells [3]; KNS42, 72 h): 731 ± 24.3 µM | IC50 (SNB19 cells [4]; SNB19, 24 h): > 1000 µM | IC50 (SNB19 cells [4]; SNB19, 48 h): > 1000 µM | IC50 (SNB19 cells [4]; SNB19, 72 h): 980 ± 281 µM | IC50 (UW228-3 cells [5]; UW228-3, 24 h): > 1000 µM | IC50 (UW228-3 cells [5]; UW228-3, 48 h): 314 ± 17.8 µM | IC50 (UW228-3 cells [5]; UW228-3, 72 h): 148 ± 14.7 µM | IC50 (DAOY cells [6]; 24 h): 547 ± 11.6 µM | IC50 (DAOY cells [6]; 48 h): 248 ± 49.8 µM | IC50 (DAOY cells [6]; 72 h): 162 ± 14.3 µM | IC50 (SF188 cells [7]; SF188, 24 h): > 1000 µM | IC50 (SF188 cells [7]; SF188, 48 h): 321 ± 86.8 µM | IC50 (SF188 cells [7]; SF188, 72 h): 188 ± 24.1 µM | IC50 (KNS42 cells [8]): 49.5 ± 11.4 µM | IC50 (SNB19 cells [9]): 63.7 ± 10 µM | IC50 (DAOY cells [10]): 464 ± 20.1 µM | IC50 (UW228-3 cells [11]): 93.1 ± 30 µM | IC50 (SF188 cells [12]): 15.2 ± 0.9 µM

CC(=O)OC[C@H]1O[C@@H]([S-])[C@H](OC(C)=O)[C@@H](OC(C)=O)[C@@H]1OC(C)=O.CCP(CC)CC.[Au+] [auranofin]
average TrxR inhibition (TrxR [13]): 83–95% | concentrations inhibiting TrxR (TrxR [14]): nanomolar concentrations
